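Test compounds were applied to cells in 96-well plates for 48 hours at 5 doses. Abbreviation: GI50, concentration required for 50% inhibition of growth.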 Active and inactive are the calls of the source. No stated cut-off is given here; in the data, active = GI50 up to about 1.1 µM and inactive = higher.
Key:
Assay in all cases: inhibition of tumour cell growth, NCI panel, 48 h
BT-549 = test system: BT-549
HCT-15 = test system: HCT-15
HOP-62 = test system: HOP-62
HT-29 = test system: HT-29
KM12 = test system: KM12
M14 = test system: M14
MDA-MB-231 = test system: MDA-MB-231
MDA-N = test system: MDA-N
MOLT-4 = test system: MOLT-4
NCI-H23 = test system: NCI-H23
NCI-H460 = test system: NCI-H460
OVCAR-3 = test system: OVCAR-3
OVCAR-4 = test system: OVCAR-4
RXF 393 = test system: RXF 393
SF-539 = test system: SF-539
SK-MEL-28 = test system: SK-MEL-28
SK-OV-3 = test system: SK-OV-3
SN12C = test system: SN12C
UACC-257 = test system: UACC-257
UO-31 = test system: UO-31

SMILES | GI50 (BT-549) | GI50 (HCT-15) [µM] | GI50 (HOP-62) | GI50 (HT-29) | GI50 (KM12) | GI50 (M14) | GI50 (MDA-MB-231) | GI50 (MDA-N) | GI50 (MOLT-4) | GI50 (NCI-H23) | GI50 (NCI-H460) | GI50 (OVCAR-3) | GI50 (OVCAR-4) | GI50 (RXF 393) | GI50 (SF-539) | GI50 (SK-MEL-28) | GI50 (SK-OV-3) | GI50 (SN12C) | GI50 (UACC-257) | GI50 (UO-31)
Cc1c2cccc(Sc3ccccc3)c2c2c3c(cccc13)[S+](c1ccccc1)C2 (stereo not given) | 2.14 µM (inactive) | 10.4 | 1.89 µM (inactive) | 1.47 µM (inactive) | 1.16 µM (inactive) | 2.08 µM (inactive) | 2.16 µM (inactive) | 2.28 µM (inactive) | 1.65 µM (inactive) | 1.82 µM (inactive) | 1.58 µM (inactive) | 0.659 µM (active) | 1.98 µM (inactive) | 3.86 µM (inactive) | 2.63 µM (inactive) | 2.58 µM (inactive) | 1.84 µM (inactive) | 2.24 µM (inactive) | 0.594 µM (active) | 2.95 µM (inactive)
Cc1cc(C2CC(O)C(CO)O2)c(F)cc1F (stereo not given) | > 100 µM (inactive) | > 100 | > 100 µM (inactive) | > 100 µM (inactive) | > 100 µM (inactive) | > 100 µM (inactive) | > 100 µM (inactive) | > 100 µM (inactive) | > 100 µM (inactive) | > 100 µM (inactive) | > 100 µM (inactive) | > 100 µM (inactive) | > 100 µM (inactive) | > 100 µM (inactive) | > 100 µM (inactive) | > 100 µM (inactive) | > 100 µM (inactive) | > 100 µM (inactive) | > 100 µM (inactive) | > 100 µM (inactive)
CC(=O)O[C@H]1CC[C@@]2(C)C(=CC[C@@H]3[C@@H]2CC[C@]2(C)C(=N/O)/C(=C/c4ccc([N+](=O)[O-])cc4)C[C@@H]32)C1 | 2.25 µM (inactive) | 4.6 | 17.3 µM (inactive) | 5.43 µM (inactive) | 5.22 µM (inactive) | 4.09 µM (inactive) | 8.89 µM (inactive) | 3.37 µM (inactive) | 3.58 µM (inactive) | 2.31 µM (inactive) | > 100 µM (inactive) | 2.47 µM (inactive) | 17 µM (inactive) | 32.4 µM (inactive) | 29.3 µM (inactive) | 11 µM (inactive) | 11.9 µM (inactive) | 5.5 µM (inactive) | 0.0304 µM (active) | 4.44 µM (inactive)
CC(C)OC(=O)c1ccc(NCC2=CC(=O)C=CC2=O)cc1Cl | 2.62 µM (inactive) | 4.4 | 32.5 µM (inactive) | 16.3 µM (inactive) | 13.5 µM (inactive) | 27.8 µM (inactive) | 16.4 µM (inactive) | 8.39 µM (inactive) | 3.72 µM (inactive) | 13.2 µM (inactive) | 19.2 µM (inactive) | 10.4 µM (inactive) | 12.7 µM (inactive) | 17.1 µM (inactive) | 12 µM (inactive) | 17.2 µM (inactive) | 31.4 µM (inactive) | 16.1 µM (inactive) | 16.1 µM (inactive) | 3.29 µM (inactive)
OCCOc1ccc(-c2cc(-c3ccccn3)nc(-c3ccccn3)c2)cc1 | 0.352 µM (active) | 0.0574 | 0.106 µM (active) | 0.112 µM (active) | 0.296 µM (active) | 0.219 µM (active) | 1.39 µM (inactive) | 0.697 µM (active) | 0.0767 µM (active) | 0.447 µM (active) | 0.0849 µM (active) | 0.11 µM (active) | 0.0731 µM (active) | 0.337 µM (active) | 0.19 µM (active) | 0.249 µM (active) | 0.308 µM (active) | 0.195 µM (active) | 0.481 µM (active) | 0.124 µM (active)
CC1=Cc2ccc(C)cc2C(=O)C1=O | 21.2 µM (inactive) | 19.3 | 21.3 µM (inactive) | 20.1 µM (inactive) | 17.6 µM (inactive) | 4.81 µM (inactive) | 20.6 µM (inactive) | 4.18 µM (inactive) | 0.605 µM (active) | 17.3 µM (inactive) | 19.8 µM (inactive) | 4.79 µM (inactive) | 4.94 µM (inactive) | 1.83 µM (inactive) | 6.28 µM (inactive) | 21.6 µM (inactive) | 13.9 µM (inactive) | 5.04 µM (inactive) | 5.89 µM (inactive) | 1.64 µM (inactive)
CN1CCN(CCCCN2c3ccccc3Sc3cc(N=[N+]=[N-])ccc32)CC1 | 7.76 µM (inactive) | 2.28 | 2.49 µM (inactive) | 1.61 µM (inactive) | 1.84 µM (inactive) | 1.72 µM (inactive) | 1.91 µM (inactive) | 3.41 µM (inactive) | 1.77 µM (inactive) | 6.31 µM (inactive) | 1.94 µM (inactive) | 2.55 µM (inactive) | 2.88 µM (inactive) | 2.7 µM (inactive) | 3.31 µM (inactive) | 1.82 µM (inactive) | 8.49 µM (inactive) | 2.31 µM (inactive) | 1.99 µM (inactive) | 0.586 µM (active)
O=c1[nH]c2ccc(O)cc2o1 | > 100 µM (inactive) | > 100 | > 100 µM (inactive) | > 100 µM (inactive) | > 100 µM (inactive) | > 100 µM (inactive) | > 100 µM (inactive) | > 100 µM (inactive) | > 100 µM (inactive) | > 100 µM (inactive) | > 100 µM (inactive) | > 100 µM (inactive) | > 100 µM (inactive) | 2.49 µM (inactive) | > 100 µM (inactive) | > 100 µM (inactive) | > 100 µM (inactive) | > 100 µM (inactive) | > 100 µM (inactive) | > 100 µM (inactive)
CNc1nc2c(C)ccc3nc(N(C)C)nc-3c2n1C | > 10 µM (inactive) | > 10 | > 10 µM (inactive) | > 10 µM (inactive) | > 10 µM (inactive) | > 10 µM (inactive) | > 10 µM (inactive) | > 10 µM (inactive) | > 10 µM (inactive) | > 10 µM (inactive) | > 10 µM (inactive) | > 10 µM (inactive) | > 10 µM (inactive) | > 10 µM (inactive) | > 10 µM (inactive) | > 10 µM (inactive) | > 10 µM (inactive) | 7.96 µM (inactive) | > 10 µM (inactive) | > 10 µM (inactive)
CCCCCCCCCCCCCCCCCCOCC(O)COP(=O)(O)OCC1OC(n2cc(F)c(=O)[nH]c2=O)CC1O (stereo not given) | 13.7 µM (inactive) | 10.8 | 0.15 µM (active) | 10.5 µM (inactive) | 14.5 µM (inactive) | 2.96 µM (inactive) | 19.1 µM (inactive) | 13.4 µM (inactive) | 3.02 µM (inactive) | 2.97 µM (inactive) | 0.678 µM (active) | 13.7 µM (inactive) | 15.1 µM (inactive) | 11.9 µM (inactive) | 0.0721 µM (active) | 14.1 µM (inactive) | 12.8 µM (inactive) | 5.81 µM (inactive) | 12.8 µM (inactive) | 1.16 µM (inactive)
O=C1C2C3C4C1C1C2[C@H](OCc2ccccc2)C3C1[C@H]4OCc1ccccc1 (stereo not given in full) | > 100 µM (inactive) | 22.2 | 73.3 µM (inactive) | 15.2 µM (inactive) | 52.2 µM (inactive) | 51.8 µM (inactive) | 82 µM (inactive) | > 100 µM (inactive) | 50.1 µM (inactive) | 48.8 µM (inactive) | 49.8 µM (inactive) | 60.5 µM (inactive) | 70.3 µM (inactive) | 31.8 µM (inactive) | 75.2 µM (inactive) | 40.2 µM (inactive) | > 100 µM (inactive) | > 100 µM (inactive) | 33 µM (inactive) | 55.8 µM (inactive)
O=c1cc(/N=N/c2ccc(O)cc2)[nH]c(=O)[nH]1 | > 100 µM (inactive) | > 100 | 62.8 µM (inactive) | 67.8 µM (inactive) | 16.9 µM (inactive) | > 100 µM (inactive) | > 100 µM (inactive) | > 100 µM (inactive) | > 100 µM (inactive) | > 100 µM (inactive) | > 100 µM (inactive) | 40.7 µM (inactive) | > 100 µM (inactive) | 42.1 µM (inactive) | 53.5 µM (inactive) | > 100 µM (inactive) | > 100 µM (inactive) | 66.7 µM (inactive) | 73.1 µM (inactive) | > 100 µM (inactive)
CCOC(=O)C(=O)/C(=C/N1C(=O)CC(=O)NC1=S)C(=O)OCC | > 100 µM (inactive) | > 100 | > 100 µM (inactive) | > 100 µM (inactive) | > 100 µM (inactive) | > 100 µM (inactive) | > 100 µM (inactive) | > 100 µM (inactive) | > 100 µM (inactive) | > 100 µM (inactive) | > 100 µM (inactive) | 0.719 µM (active) | > 100 µM (inactive) | > 100 µM (inactive) | > 100 µM (inactive) | > 100 µM (inactive) | > 100 µM (inactive) | > 100 µM (inactive) | > 100 µM (inactive) | 26.8 µM (inactive)
COC(=O)[C@@H]1C[C@H]([Se]c2ccccc2)CN1S(=O)(=O)c1ccc(C)cc1 | 98.2 µM (inactive) | > 100 | > 100 µM (inactive) | 49.7 µM (inactive) | 68.9 µM (inactive) | > 100 µM (inactive) | > 100 µM (inactive) | > 100 µM (inactive) | 35.7 µM (inactive) | > 100 µM (inactive) | > 100 µM (inactive) | 56 µM (inactive) | 42.8 µM (inactive) | 39.4 µM (inactive) | > 100 µM (inactive) | 76.2 µM (inactive) | > 100 µM (inactive) | > 100 µM (inactive) | > 100 µM (inactive) | 51.9 µM (inactive)

From ChEMBL document CHEMBL1201862, “PubChem BioAssay data set” (2004)
